# Like-named read-outs stand apart in the source and are kept apart here.
# Tests used:
# [1] = Caco-2 cell permeability study; assay type: in vitro ADME; conditions: human; for efflux ratio at 2 h, 5 µM: Caco-2, pH 7.4; for recovery at 2 h, 5 μM: Caco-2, pH 7.4, Caco-2, 5 μM; for Papp A→B at 2 h, 5 µM / Papp B→A at 2 h, 5 µM: pH 7.4, Caco-2, 5 μM; for Papp A→B at 2 h, 5 µM: apical to basolateral; for Papp B→A at 2 h, 5 µM: basolateral to apical
# Excerpt: One of the physicochemical quantities that mirrors the interaction of a compound with the cell membrane is permeability. Traditionally, measuring permeability with the PAMPA model provides estimates of passive permeability across a model membrane. […] Therefore, we measure the cell permeability of the six compounds using Caco-2 cells, so that the apical to basolateral (A to B) and basolateral to apical (B to A) permeabilities, and thereby the efflux ratio, can be determined. Three commercial drugs (Table 2) are used as standard compounds to establish and validate our in-house assay.
# For Caco-2 cells (originally obtained from the American Type Culture Collection; ATCC, Manassas, VA, USA), 50 μL and […] of cell culture medium are added to each well of the Transwell insert and reservoir, respectively. And then the HTS transwell plates are incubated at 37 °C, 5% CO2 for 1 h before cell seeding. Caco-2 cells are diluted to 6.86 × 10^5 cells/mL with culture medium and 50 μL of cell suspension is dispensed into the filter well of the 96-well HTS Transwell plate. Cells are cultivated for 14–18 days in a cell culture incubator at 37 °C, 5% CO2, 95% relative humidity. Cell culture medium is replaced every other day, beginning no later than 24 h after initial plating. Stock solutions of the test compounds are prepared at a concentration of 10 mM in DMSO. […] Detailed assay procedures are provided in the SI. […]
# dilution factor is changed according to the log D value and the LC-MS signal response. The samples are evaluated by LC-MS/MS analysis. All experiments are performed in duplicates.
# 5. Caco-2 Cell Permeability Assay
# The Caco-2 plate is removed from the incubator and washed twice with pre-warmed HBSS (10 mM HEPES, pH 7.4), and then incubated at 37 °C for 30 minutes. The stock solutions of control compounds and test compounds are diluted in DMSO to get 1 mM solutions and then diluted with HBSS (10 mM HEPES, pH 7.4) get 5 μM working solutions. The final concentration of DMSO in the incubation system is 0.5%. To determine the rate of drug transport in the apical to basolateral direction. 125 μL of 5 μM working solution of control compounds and test compounds are added to the Transwell insert (apical compartment), and transfer 50 μL sample (D0 sample) immediately from the apical compartment to a new 96-well plate. Fill the wells in the receiver plate (basolateral compartment) with 235 μL of HBSS (10 mM HEPES, pH 7.4). To determine the rate of drug transport in the basolateral to apical direction. 285 μL of 5 μM working solution of control compounds and test compounds are to the receiver plate wells (basolateral compartment), and transfer 50 μL sample (D0 sample) immediately from the basolateral compartment to a new 96-well plate.
# Fill the wells in the Transwell insert (apical compartment) with 75 μL of HBSS (10 mM HEPES, pH 7.4).
# The assay is performed in duplicate. The plates are incubated at 37 °C for 2 h. At the end of the incubation, 50 μL samples from donor sides (apical compartment for Ap→Bl flux, and basolateral compartment for Bl→Ap) and receiver sides (basolateral compartment for Ap→Bl flux, and apical compartment for Bl→Ap) are transferred to wells of a new 96-well plate, followed by the addition of 4 volume of cold acetonitrile containing appropriate internal standards (IS). Samples are Vortexed for 5 minutes and then centrifuged at 3,220 g for 30 minutes. An aliquot of 100 µL of the supernatant is mixed with an appropriate volume of ultra-pure water before LC-MS/MS analysis (see SI Bioanalytical Method for Caco-2 Cell Permeability […]
# Papp (A to B) is greater than the Papp (A to B) of minoxidil it is assigned as high permeability. If the Papp (A to B) is […]
# [2] = log D7.4 by shake-flask method (1-octanol/PBS); assay type: physicochemical
# Description: (§1) One explanation for the high IC50 values (i.e., low activity) of the new compounds is their potential poor solubility in aqueous solution or inadequate lipophilicity. To investigate this hypothesis, we determined kinetic solubility in […] phosphate buffer at pH 7.4 (Table 1). […] The remaining two compounds, BE and 29, show low solubilities (<0.1 μM). […] Additionally, since approximately 95% of drugs are ionizable, assessment of lipophilicity at pH 7.4 (log D7.4) is essential during the initial phases of drug discovery. In this study, we employ the shake-flask method to evaluate this property. […] Because lipophilicity directly reflects compound–membrane interaction, the activity of these compounds against PANC-1 cells likely stems from their interaction with the cell membrane.
# The basic solution is titrated with the acidic solution to achieve pH 7.4, with the pH verified and adjusted to 7.4 ± 0.1 on the experiment day. Saturated 1-octanol and PBS (pH 7.4) are also prepared. The stock solutions of test compounds and control compound progesterone are prepared in DMSO at a concentration of 10 mM (0.666 mM: compound 39). The detailed procedure for log D determinations can be found in the SI. […]
# 4. Procedure for log D determinations […]
# µL of phosphate buffer saturated 1-octanol to get a concentration of 300 µM working solution. 20 µL of 300 µM compound solution is placed in order into their proper 96-well rack followed by the addition of 980 µL of 1-octanol saturated phosphate buffer. One stir stick is added to each vial and vials are sealed molded PTFE/Silicone plugs. Then the log D plate is transferred to the Eppendorf Thermomixer Comfort plate shaker and shaken at 25°C at 1,100 RPM for 1 h. The assay is performed in duplicate. After completion of 1 h, the stir sticks are removed using a big magnet. The samples are then centrifuged at 25°C at 20,000 g for 20 minutes to separate the phases, and syringe is used to remove the lower (buffer) phases to the empty tubes. Then the buffer phase is diluted with the same volume of acetonitrile/ultrapure water (50%/50%) for LC-MS/MS analysis. 300 µM working solution is diluted with acetonitrile/ultrapure water (50%/50%) to achieve a concentration of 3 µM. Then the 3 µM solution is diluted to 0.3 µM to get the total samples by adding 4 volumes of acetonitrile/ultrapure water (50%/50%) and 5 volumes of 1-octanol saturated Phosphate Buffer for LC-MS/MS analysis. […]
# test compounds and control compound is placed in order into their 2.0 mL deep well plate, 500 µL of […]
# followed by the addition of 500 µL of saturated PBS (pH 7.4). Seal the plate using a Silicone sealing mat.
# Then the log D plate is transferred to the Eppendorf Thermomixer Comfort plate shaker and shaken at 25°C at 2,000 RPM for 2 h. After completion of 2 h, the samples are then centrifuged at 25°C at 3,220 g for 30 minutes to separate the phases, and pipette are used to remove the upper (1-octanol) and lower (buffer) phases to the empty tubes, respectively. Aliquots of 50 µL are taken from upper phases followed by addition of 450 µL of acetonitrile (containing internal standards (IS, 200 nM labetalol, 100 nM tolbutamide and 100 nM ketoprofen)). Mix with a pipette, and then aliquots of 50 µL are taken from the diluent followed by addition of 450 µL of acetonitrile (containing internal standards (IS, 200 nM labetalol, 100 nM tolbutamide and 100 nM ketoprofen)). […]
# [3] = Kinetic solubility in PBS pH 7.4; assay type: physicochemical; conditions: sodium phosphate buffer (PBS), 25 °C, pH 7.4, aqueous buffer, kinetic from dmso stock, PBS pH 7.4, 25 °C
# Description: as §1
# Solubility is determined in 100 mM sodium phosphate buffer (PBS), pH 7.4. The stock solutions of test compound and control compound progesterone are prepared in DMSO at a concentration of 10 mM. 30 µL of working solutions of each sample is placed in order into their proper 96-well rack. 970 µL of PBS pH 7.4 is added into each vial of the cap-less Solubility Sample plate. The assay is performed in duplicate. Add one stir stick to each vial and seal using a molded PTFE/Silicone plug. Then the Solubility Sample plate is transferred to the Eppendorf Thermomixer Comfort plate shaker and shaken at 25 °C at 1100 RPM for 2 h. After completion of the 2 h, plugs are removed and the stir sticks are removed using a big magnet, the samples from the Solubility Sample plate are transferred into the filter plate. Using the Vacuum Manifold, all the samples are filtered. Aliquot of 5 µL is taken from the filtrate, followed by addition of 5 µL DMSO and 490 µL of a mixture of H2O and acetonitrile (1:1 in v/v). 200 μL of diluent is transferred to a new 96-well plate for LC-MS/MS analysis (see SI Bioanalytical Method for Solubility Measurement). The dilution factor is changed according to the solubility values and the LC-MS signal response.
# MRM) / -4500 v (negative MRM). […]
# 13. Bioanalytical Method for Solubility Measurement
# MS analysis: Triple Quad TM 5500 instrument from AB Inc (Canada) with an ESI interface
# Injection volume: 1 μL, 3 μL, 5 μL or 10 μL
# Column: ACQUITY UPLC BEH C18 (2.1 × 50 mmI.D. S-1.7 μm, 12 nm) Column
# Mobile phase: 0.1% Ammonium hydroxide solution in water (A) and 0.1% Ammonium hydroxide solution
# Column: XSelect Hss T3 2.5μm (2.1 × 50 mm) Column XP
# Mobile phase: 0.1% formic acid in water (A) and 0.1% formic acid in acetonitrile (B)
# [4] = read-out: Mean % Solution Recovery A to B
# [5] = read-out: Mean % Solution Recovery B to A
SMILES,"efflux ratio at 2 h, 5 µM [1]","recovery at 2 h, 5 μM [1, 4] [%]","recovery at 2 h, 5 μM [1, 5] [%]","Papp A→B at 2 h, 5 µM [1] [×10⁻⁶ cm/s]","Papp B→A at 2 h, 5 µM [1] [×10⁻⁶ cm/s]","log D7.4 ([2]; 1-Octanol/PBS pH 7.4, shake-flask)",solubility at 2 h [3] [µM],"logD ([2]; 1-octanol/PBS, pH 7.4, 1-Octanol/PBS pH 7.4, shake-flask)"
C[C@@H]1C(=O)[C@](C)(O)C(=O)NCC(=O)N[C@H](CN2CCN(C)CC2)/C=C/C(=O)N(C)CC(=O)O[C@H]1CCCCCc1cn(CCCCCCCCCC(=O)O)nn1 [Compound 39],1.26,99.5,48.6,0.0836,0.105,−0.30,,
"C[C@H]1O[C@@H](O[C@H]2[C@@H](O)C[C@H](O[C@H]3[C@@H](O)C[C@H](O[C@H]4CC[C@@]5(C)[C@H](CC[C@@H]6[C@@H]5C[C@@H](O)[C@]5(C)[C@@H](C7=CC(=O)OC7)CC[C@]65O)C4)O[C@@H]3C)O[C@@H]2C)C[C@H](O)[C@@H]1O [Digoxin, reference compound]",25.9,83.2,95,0.77,20,,,
"Nc1cc(N2CCCCC2)nc(N)[n+]1[O-] [Minoxidil, reference compound]",1.08,104,106,9.52,10.3,,,
"CC(=O)[C@H]1CC[C@H]2[C@@H]3CCC4=CC(=O)CC[C@]4(C)[C@H]3CC[C@]12C [Progesterone, reference compound]",,,,,,,13.1,3.85

# — paper PMC12843137, “Fine-Tuning Side Chain Substitutions: Impacts on the Lipophilicity–Solubility–Permeability Interplay in Macrocyclic Peptides” (Marine Drugs, 2025)
